Assay results published in paper PMC9394474 (Viruses, 2022).
Several values for one entry are separate records, joined by “and”; a condition that tells them apart may be missing. Equal entries are not always repeated. Where two headings read alike, the source gives them in different places. Ends that are not written are not given here. Peptide text beside a SMILES is read from it.

Target: human hisTRIM7-PRYSPRY (Homo sapiens, UniProt Q9C029)
Assay: ITC binding to human TRIM7 PRYSPRY (wild type)

| Compound | Kd (KD, ITC, one-site model, 15 °C, 50 mM phosphate pH 6.5, 1 mM DTT, TRIM7 500 µM, ligand 100 µM (peptide 50 µM), representative trace and fit) [µM] | Kd |
| --- | --- | --- |
| DNIKKKLDTYLQ [rbGYG322-333] | 21 ± 1.8 |  |
| CC(C)C[C@H](N)C(=O)N[C@@H](CCC(N)=O)C(=O)O [LQ] (H-Leu-Gln-OH) |  | 201 ± 30 µM |
| AAAAALQ [polyA-LQ] |  | 8.92 µM and 8 µM |
| CC(=O)N[C@@H](CC(C)C)C(=O)N[C@@H](CC(C)C)C(=O)N[C@@H](CCC(N)=O)C(=O)O [Ac-LLQ] (Ac-Leu-Leu-Gln-OH) |  | 38.7 ± 5.16 µM |
| AIEALFQ [AIEALFQ] |  | 17 ± 4.3 µM |
